Laboratory results reported in ChEMBL document CHEMBL1153680, “Structural influences of styryl-based inhibitors on epidermal growth factor receptor and p56lck tyrosine-specific protein kinases” (Bioorg Med Chem Lett, 1991).

Key:
[1] = biological target: Tyrosine-protein kinase Lck (Homo sapiens, UniProt P06239); experiment: Inhibition of p56 lck tyrosine kinase
[2] = biological target: Epidermal growth factor receptor (Homo sapiens, UniProt P00533); experiment: Inhibition of Epidermal growth factor receptor
Epidermal growth factor receptor, sequence (P00533 whole entry): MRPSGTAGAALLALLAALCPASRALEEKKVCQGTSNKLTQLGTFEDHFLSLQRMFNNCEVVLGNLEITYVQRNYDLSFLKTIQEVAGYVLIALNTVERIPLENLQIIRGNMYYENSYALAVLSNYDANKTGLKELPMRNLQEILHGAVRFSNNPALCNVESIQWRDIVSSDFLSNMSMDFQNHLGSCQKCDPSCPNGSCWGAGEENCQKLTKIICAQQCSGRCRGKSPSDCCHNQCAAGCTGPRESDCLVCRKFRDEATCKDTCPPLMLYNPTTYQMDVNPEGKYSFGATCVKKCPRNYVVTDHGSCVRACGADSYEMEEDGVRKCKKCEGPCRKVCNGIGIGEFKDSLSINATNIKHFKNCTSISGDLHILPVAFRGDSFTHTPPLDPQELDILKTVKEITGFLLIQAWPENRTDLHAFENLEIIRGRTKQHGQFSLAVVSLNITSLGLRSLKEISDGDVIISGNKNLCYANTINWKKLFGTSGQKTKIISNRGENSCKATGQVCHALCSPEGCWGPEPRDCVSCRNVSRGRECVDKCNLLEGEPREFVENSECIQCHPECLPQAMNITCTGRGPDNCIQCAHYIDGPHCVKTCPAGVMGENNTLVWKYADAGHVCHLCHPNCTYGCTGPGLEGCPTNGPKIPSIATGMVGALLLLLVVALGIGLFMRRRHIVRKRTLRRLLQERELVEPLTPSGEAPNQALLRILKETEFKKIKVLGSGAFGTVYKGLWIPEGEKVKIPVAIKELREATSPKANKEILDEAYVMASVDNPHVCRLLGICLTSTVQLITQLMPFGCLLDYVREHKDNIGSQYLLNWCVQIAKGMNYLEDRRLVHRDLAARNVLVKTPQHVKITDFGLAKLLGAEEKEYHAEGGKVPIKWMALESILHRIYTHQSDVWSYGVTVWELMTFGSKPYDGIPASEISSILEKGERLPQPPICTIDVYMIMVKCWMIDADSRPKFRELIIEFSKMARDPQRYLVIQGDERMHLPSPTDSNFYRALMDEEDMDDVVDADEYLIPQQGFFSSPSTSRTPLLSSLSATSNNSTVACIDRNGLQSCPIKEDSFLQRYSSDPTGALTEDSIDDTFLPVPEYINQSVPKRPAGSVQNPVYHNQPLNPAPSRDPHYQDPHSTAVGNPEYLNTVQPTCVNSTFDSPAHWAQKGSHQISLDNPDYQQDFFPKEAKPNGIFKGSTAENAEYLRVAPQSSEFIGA

Tyrosine-protein kinase Lck, sequence (P06239 whole entry): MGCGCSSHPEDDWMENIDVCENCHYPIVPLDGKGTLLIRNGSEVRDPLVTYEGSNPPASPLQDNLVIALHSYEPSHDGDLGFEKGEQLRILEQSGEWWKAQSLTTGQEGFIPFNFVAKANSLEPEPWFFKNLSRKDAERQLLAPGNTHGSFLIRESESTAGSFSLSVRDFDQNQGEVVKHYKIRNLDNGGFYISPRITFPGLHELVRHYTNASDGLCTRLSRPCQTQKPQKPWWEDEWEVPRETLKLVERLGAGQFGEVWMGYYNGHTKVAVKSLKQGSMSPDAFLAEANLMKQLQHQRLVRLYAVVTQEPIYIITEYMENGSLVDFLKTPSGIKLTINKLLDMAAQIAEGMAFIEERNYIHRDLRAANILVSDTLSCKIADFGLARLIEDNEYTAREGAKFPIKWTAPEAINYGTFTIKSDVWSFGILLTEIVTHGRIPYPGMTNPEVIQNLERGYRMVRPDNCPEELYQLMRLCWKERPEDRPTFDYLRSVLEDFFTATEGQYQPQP

IC50 [1] | IC50 [2] | SMILES
7 µM | 4 µM | N#C/C(=C\c1ccc(O)c(O)c1)C(N)=O
 | 7 µM | O=CN/C=C/c1ccc(O)c(O)c1
100 µM | 10 µM | N#C/C(=C\c1cc(O)ccc1O)C(N)=O
 | 3 µM | O=CN/C=C/c1cc(O)ccc1O [ERBSTATIN]
